# Test results: article PMC11514582, “Leveraging the Aggregated Protein Dye YAT2150 for Malaria Chemotherapy” (Pharmaceutics, 2024)
# Where two headings read alike, the source gives them in different places.
# Legend:
# HUVEC = conditions: cited from earlier work
# [1] = test system: MCF7 human breast adenocarcinoma; conditions: cited from earlier work
# [2] = Bidirectional permeability in Caco-2 cell monolayer; conditions: human
# [3] = cited from earlier work
# [4] = test system: P. falciparum asexual blood stages; conditions: cited from earlier work
# [5] = test system: P. berghei ookinete development; assay: Ex vivo gametocyte-to-ookinete transition inhibition (ookinete maturation) assay; format: cell-based, Plasmodium berghei; conditions: up to a concentration of 2 µM
# Experimental: Eight days before ookinete production, 100 µL of a red blood cell (RBC) pellet containing the Plasmodium berghei circumsporozoite protein and thrombospondin-related adhesive protein (TRAP)-related protein (CTRP)-green fluorescent protein (GFP) strain (CTRP-GFP, which expresses GFP when reaching ookinete stage, kindly provided by Inga Siden-Kiamos) in cryopreservation solution (RBC pellet:RPMI:30% glycerol in water, 1:1:2) was administered intraperitoneally (i.p.) to a BALB/c mouse (Charles River Laboratories, Wilmington, MA, USA). […] The effect of drugs on gametocyte-to-ookinete conversion was assessed in three independent replicas by plating 120 µL of each culture treated with serial dilutions of the compounds in 96-well plates and incubated for 24 h at 21 °C with orbital shaking at 50 rpm (modified from). Finally, samples diluted 1:100 in PBS were analyzed in an LSRFortessa flow cytometer (BD Biosciences, Franklin Lakes, NJ, USA) set up with the 4 lasers, 20 parameters standard configuration. The GFP positive cell population was counted (λexcitation: 488 nm; λemission: 525/40 nm) using BD FACSDiva software 6.1.3 (BD Biosciences) for data collection and Flowing Software 2.5.1 (Turku Center for Biotechnology, Turku, Finland) for analysis.
# CYP1A2 = biological target: T1, CYP1A2 (Homo sapiens, UniProt P05177); assay: in vitro
# T1 sequence (P05177 1-516): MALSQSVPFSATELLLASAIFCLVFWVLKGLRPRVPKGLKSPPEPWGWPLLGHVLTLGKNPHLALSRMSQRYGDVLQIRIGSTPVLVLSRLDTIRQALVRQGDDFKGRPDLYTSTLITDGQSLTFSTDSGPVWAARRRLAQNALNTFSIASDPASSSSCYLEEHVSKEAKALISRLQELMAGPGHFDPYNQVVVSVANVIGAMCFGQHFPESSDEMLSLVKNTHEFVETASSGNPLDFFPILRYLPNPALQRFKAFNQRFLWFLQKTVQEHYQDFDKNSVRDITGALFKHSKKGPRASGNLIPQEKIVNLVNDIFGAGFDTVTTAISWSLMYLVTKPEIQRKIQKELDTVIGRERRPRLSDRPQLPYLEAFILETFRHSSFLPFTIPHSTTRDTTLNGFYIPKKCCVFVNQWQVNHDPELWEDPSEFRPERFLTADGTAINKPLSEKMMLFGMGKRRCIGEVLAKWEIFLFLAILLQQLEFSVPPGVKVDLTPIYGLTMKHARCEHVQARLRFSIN
# [6] = Human plasma protein binding (Rapid Equilibrium Dialysis); format: in vitro ADME; conditions: pH 7.2, RED, 4 h at 37 °C
# Experimental: The assay was carried out by Rapid Equilibrium Dialysis (RED). The compounds were dissolved at 5 μM in human plasma and added to the corresponding insert of the RED device (Thermo Fisher Scientific, Inc., Waltham, MA, USA), and dialysis was performed for 4 h at 37 °C in […], 25 mM tris-HCl, pH 7.2 (Tris BupH^TM, Thermo Fisher Scientific, Inc.). Then, 50-µL aliquots from each chamber were transferred to empty vials, to which 50 µL of dialysis buffer was added. As control, 50 µL of plasma was mixed with 50 µL of buffer. Three hundred µL of acetonitrile was added to all the samples, which were analyzed by ultra-performance liquid chromatography with tandem mass spectrometry as previously described.
# [7] = human, hepatocytes
# CYP2D6 = CYP2D6 (Homo sapiens, UniProt P10635); assay: Cytochrome inhibition assay CYP2D6
# Sequence of CYP2D6 (P10635 whole entry): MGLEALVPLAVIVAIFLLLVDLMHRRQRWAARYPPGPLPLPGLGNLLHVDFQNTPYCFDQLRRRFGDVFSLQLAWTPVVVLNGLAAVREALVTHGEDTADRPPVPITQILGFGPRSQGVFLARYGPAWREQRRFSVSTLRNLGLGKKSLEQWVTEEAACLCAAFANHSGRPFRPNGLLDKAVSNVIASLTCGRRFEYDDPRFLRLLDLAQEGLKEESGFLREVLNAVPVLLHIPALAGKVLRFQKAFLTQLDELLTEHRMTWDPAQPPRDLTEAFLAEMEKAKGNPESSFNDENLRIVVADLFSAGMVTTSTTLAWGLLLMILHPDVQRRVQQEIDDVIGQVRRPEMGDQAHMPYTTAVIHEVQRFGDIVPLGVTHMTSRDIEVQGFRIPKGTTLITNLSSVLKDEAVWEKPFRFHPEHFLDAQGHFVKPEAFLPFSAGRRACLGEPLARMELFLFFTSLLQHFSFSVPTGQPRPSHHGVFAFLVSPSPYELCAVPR
# CYP2C9 = CYP2C9 (Homo sapiens, UniProt P11712); assay: in vitro
# Sequence of CYP2C9 (P11712 whole entry): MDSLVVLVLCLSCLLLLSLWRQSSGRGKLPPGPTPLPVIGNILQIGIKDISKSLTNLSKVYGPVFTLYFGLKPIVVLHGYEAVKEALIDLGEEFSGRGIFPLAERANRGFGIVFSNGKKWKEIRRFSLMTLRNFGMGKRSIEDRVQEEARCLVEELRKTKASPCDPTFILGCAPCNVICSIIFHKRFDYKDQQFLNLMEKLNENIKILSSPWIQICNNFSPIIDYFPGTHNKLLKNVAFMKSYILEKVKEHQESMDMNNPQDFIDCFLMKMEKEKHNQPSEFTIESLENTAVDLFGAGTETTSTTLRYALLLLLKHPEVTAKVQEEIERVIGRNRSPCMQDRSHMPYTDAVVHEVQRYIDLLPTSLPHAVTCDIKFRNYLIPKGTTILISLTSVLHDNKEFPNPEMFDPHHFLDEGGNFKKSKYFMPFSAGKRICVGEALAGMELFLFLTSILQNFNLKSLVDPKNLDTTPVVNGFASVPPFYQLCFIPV
# [8] = test system: P. falciparum asexual blood stages; assay: microbe, parasite or virus in culture; conditions: Plasmodium falciparum
# Experimental: The asexual blood stages of P. falciparum parasites of the 3D7 strain (Malaria Research and Reference Reagent Resource Center, Manassas, VA, USA) were cultured in group B human RBCs at 3% hematocrit, which was kept throughout the experiments, and incubated in RPMIc. Parasites were maintained at 37 °C under an atmosphere of 5% O2, 5% CO2, and 90% N2. […] The parasites were then cultured under standard conditions for 48 h, allowing for a complete replication cycle. After the incubation period, 3 µL of culture from each well was mixed with 197 µL of PBS containing 0.1 µM Syto 11 (Thermo Fisher Scientific, Inc.) to obtain a final concentration of 1 × 10^6 to 10 × 10^6 cells/mL. Parasitemia levels were measured using an LSRFortessa flow cytometer equipped with a standard configuration of four lasers and 20 parameters. Single-cell populations were identified on a forward-side scatter plot. […] The inhibition data were then transformed using sigmoidal fitting to determine IC50.
# For stage arrest assays, P. falciparum cultures were tightly synchronized in schizont stages by repeated treatment with 70% Percoll (GE Healthcare, Chicago, IL, USA) [26, 27]. […] Pictures were taken with a Nikon Eclipse 50i microscope equipped with a DS-Fi1 camera (Nikon Corporation, Tokyo, Japan).
# [9] = test system: protein aggregation in P. falciparum cultures; assay: ThT protein aggregation assay in P. falciparum cultures; format: cell-based, Plasmodium falciparum; conditions: treated for 4 h at the IC50
# Experimental: After this incubation, 9 mL of culture was removed and subjected to a second Percoll treatment to pellet the parasitized red blood cells, which were resuspended in 50 μL of lysis buffer, consisting of 4.5 mg/mL NaCl in H2O supplemented with 1× cOmplete^TM protease inhibitor cocktail (Roche, Basel, Switzerland), and treated as described elsewhere [13]. […] Only those samples with parasitemias between 30 and 70% relative to the control were considered for ThT analysis.
# [10] = test system: liver stages of P. berghei in Huh7; conditions: read-out: IC50 against liver stages of P. berghei; cited from earlier work
# [11] = test system: P. falciparum gametocytes; conditions: cited from earlier work
# [12] = 3D7, read-out: in vitro IC50 as determined in our experimental setting
compound,measurement,setting,value
N.N.[Cl][Pt][Cl] [Cisplatin],CC50,HUVEC,2350 ± 40 nM
same,CC50,[1],16.7 µM
COc1cc2c(c(OC)c1OC)-c1ccc(OC)c(=O)cc1[C@@H](NC(C)=O)CC2 [Colchicine],Papp,[2]; Caco-2,0.26 ± 0.02 ×10⁻⁶ cm/s
same,Papp B→A,[2]; Caco-2,8.98 ± 0.47 ×10⁻⁶ cm/s
same,efflux ratio,"[2]; Caco-2, Transport through Caco-2 Efflux ratio, reference compounds, tested in parallel",35.3 ± 3
same,efflux ratio,"[2]; Caco-2, efflux ratios of reference compounds, as quoted in text from Supplementary Table S2",33
same,Papp AB reported,[3]; ref 24 (supplement list),13 nm/s
same,Papp BA reported,[3]; ref 24 (supplement list),54 nm/s
COc1cc2c(cc1OC)C(=O)C(CC1CCN(CCCNc3c4c(nc5cc(Cl)ccc35)CCCC4)CC1)C2 (stereo not shown) [DONE3TCl],IC50,[4]; read-out: IC50 in in vitro P. falciparum asexual blood stage cultures,~80 nM
same,effect on ookinete development,[5],much less significant effect
C[C@]12CC[C@@H]3c4ccc(OS(=O)(=O)O)cc4CC[C@H]3[C@@H]1CCC2=O [Estrone-3-sulfate],"Transport through Caco-2 AB (Papp), reference compounds",,4.4 ± 0.3 nm/s
same,"Transport through Caco-2 Efflux ratio, reference compounds",,26.5±3.5
same,"Transport through Caco-2 BA (Papp), reference compounds",human,110.0 ± 9.4 nm/s
same,Papp AB reported,[3]; not told,27 nm/s
same,Papp BA reported,[3]; not told,175 nm/s
Cc1nc2c([nH]1)c(=O)n(C)c(=O)n2Cc1ccco1 [Furafylline],inhibition at 2 µM,CYP1A2,61%
O=C1NC(=O)C(c2ccccc2)(c2ccccc2)N1 [Phenytoin],"fraction unbound at 4 h, 5 μM",[6],0.167
COc1cc2nc(N3CCN(C(=O)c4ccco4)CC3)nc(N)c2cc1OC [Prazosin],"Hepatocyte stability (remaining after 2 h), reference compounds",[7],70.2%
same,solubility,physchem,63.8 µM
CC(=O)[C@H]1CC[C@H]2[C@@H]3CCC4=CC(=O)CC[C@]4(C)[C@H]3CC[C@]12C [Progesterone],solubility,Solubility in PBS,8 µM
C=C[C@H]1C[N@@]2CC[C@H]1C[C@@H]2[C@@H](O)c1ccnc2ccc(OC)cc12 [Quinidine],inhibition at 0.0073 µM,CYP2D6,69%
Nc1ccc(S(=O)(=O)Nc2ccnn2-c2ccccc2)cc1 [Sulfaphenazole],inhibition at 0.37 µM,CYP2C9,43%
C[C@]12CC[C@H]3[C@@H](CCC4=CC(=O)CC[C@@]43C)[C@@H]1CC[C@@H]2O [Testosterone],half-life,"Microsomal stability; human, microsomes",15.3 min
same,microsomal CLint,"Microsomal stability; human, microsomes",55.6 µL/min/mg
same,"Microsomal stability (remaining after 1 h), reference compound",Microsomal stability; tested in parallel,6.5%
C[C@@H]1CC[C@H]2[C@@H](C)C(=O)O[C@@H]3O[C@@]4(C)CC[C@@H]1[C@]32OO4 [artemisinin],IC50,[8]; [12],10.8 nM
same,effect on protein aggregation (ThT fluorescence),[9],did not have an observable effect
O=C1C(O)=C([C@H]2CC[C@H](c3ccc(Cl)cc3)CC2)C(=O)c2ccccc21 [atovaquone],IC50,[8]; [12],1 nM
same,effect on protein aggregation (ThT fluorescence),[9],did not have an observable effect
CCN(CC)CCCC(C)Nc1ccnc2cc(Cl)ccc12 (stereo not shown) [chloroquine],IC50,[8]; read-out: in vitro IC50 as determined in our experimental setting,7 nM
same,IC50,"[4]; Table S2, ref 10 (supplement list), read-out: IC50 P. falciparum (3D7) blood stages, reference compound",29.7 ± 6 nM
same,effect on protein aggregation (ThT fluorescence),[9],reduce protein aggregation
COc1cc(NC(C)CCCN)c2ncccc2c1 (stereo not shown) [primaquine],IC50,[8]; [12],3000 nM
same,IC50,[10],~10 µM
same,IC50,"[11]; Table S2, ref 10 (supplement list), read-out: IC50 P. falciparum early/stage V gametocytes, reference compound",18.9 ± 2 µM
same,IC50,"[11]; stage IV-V gametocytes, read-out: IC50 for P. falciparum gametocytes (primaquine)",~20 µM
same,effect on protein aggregation (ThT fluorescence),[9],reduce protein aggregation
